Entries after “also recorded” stand apart in the source; their conditions may differ.

Experiment [1] concerns microorganisms. The experiment is described as follows: Peptide activities: targeting/binding, antimicrobial, growth or phenotype altering (Tables 7, 8). As to conditions: peptides having multiple activities. It counts as cell-based.
Experiment [2] relates to microorganisms. Kind of experiment: Morphology, biofilm and growth disrupting peptides (Table 5). Also on record: key: A: Peptide aggregates; B: Less hyphal formation; Clumps; Diffuse clumps and small polyps; F: Diffuse growth; H: Thin; I: Growth inhibition; Microcolony formation; Rippled; Small polyps; Thick; W: Halo formation on top, microlonies on bottom. It counts as cell-based. An excerpt: In certain embodiments peptides that induce alterations in phenotype or other biological activities can also be used as antimicrobial effector moieties.

Experiment [3] deals with microorganisms. The experiment is described as follows: Targeting peptide binding to target microorganisms (Tables 3, 10, 12). The settings on record: microorganism(s) the targeting peptide binds; binding in aqueous buffers varied with peptide solubility, preferably 1x PBS.

For “PF-192: peptide having multiple activities (VEEDEAPPPHY; Peptide with targeting and/or antimicrobial activity)”, the Activities entry in the experiment with microorganisms [1] is “G B”. In addition, the “Organism, effect: S. epidermidis” value with microorganisms [2] is “S. epidermidis (D)”. The “Target(s)” value in the experiment with microorganisms [3] is reported as “S. epidermidis; also recorded: M. luteus; also recorded: P. aeruginosa; also recorded: C. albicans; also recorded: E. faecalis; also recorded: C. jeikeium”.

On to “PF-204: peptide having multiple activities (ALQKQDMNLPSVKNQLVFLKSTG; Peptide with targeting and/or antimicrobial activity)”, for which the Activities entry in the experiment on microorganisms [1] was “G B”. Besides, in the experiment on microorganisms [2], the “Organism, effect: C. jeikeium” value is given as “C. jeikeium (D)”; the “Organism, effect: M. luteus” value is on record as “M. luteus (C)”; the “Organism, effect: S. epidermidis” value is recorded as “S. epidermidis (C)”. Moreover, in the experiment with microorganisms [2] (P. aeruginosa), the “Organism, effect: P. aeruginosa” value is reported as “P. aeruginosa (H)”. Further, in the experiment with microorganisms [3], the “Target(s)” value was “S. epidermidis; also recorded: P. mirabilis; also recorded: E. coli; also recorded: P. aeruginosa; also recorded: C. albicans; also recorded: C. jejuni”.

“PF-208: peptide having multiple activities (DAYHCHLVRSPDAHDLSMRIGFV; Peptide with targeting and/or antimicrobial activity)”: the Activities entry in the experiment on microorganisms [1] is “G B”. Besides, in the experiment with microorganisms [2], the “Organism, effect: C. jeikeium” value was “C. jeikeium (A)” and the “Organism, effect: S. epidermidis” value is “S. epidermidis (D)”. Also, the “Target(s)” value in the experiment with microorganisms [3] is “S. epidermidis and C. albicans and MRSA and S. pneumoniae and E. faecalis and C. jeikeium and C. jejuni”.

With “PF-212: peptide having multiple activities (NDSKASN; Peptide with targeting and/or antimicrobial activity)”, in the experiment on microorganisms [1], the Activities entry was “G B”. Moreover, in the experiment with microorganisms [2], the “Organism, effect: M. luteus” value was “M. luteus (M)”. Moreover, the “Target(s)” value in the experiment on microorganisms [3] is “M. luteus; also recorded: P. aeruginosa”.

Turning to “PF-215: peptide having multiple activities (ELKITNYNVNTVLYRYYKWGNDLCE; Peptide with targeting and/or antimicrobial activity)”, in the experiment with microorganisms [1], the Activities result is “G B”. Besides, the “Organism, effect: M. luteus” value in the experiment on microorganisms [2] is “M. luteus (T)”. Further, in the experiment on microorganisms [3], the “Target(s)” value is “S. epidermidis; also recorded: M. luteus; also recorded: P. aeruginosa; also recorded: A. baumannii”.

For “PF-224: peptide having multiple activities (DYFYITLSQKNTF; Peptide with targeting and/or antimicrobial activity)”, the Activities entry in the experiment on microorganisms [1] is “G B”. Also, the “Organism, effect: M. luteus” value with microorganisms [2] was “M. luteus (T)”. Moreover, the “Target(s)” value in the experiment with microorganisms [3] is “S. epidermidis; also recorded: P. aeruginosa; also recorded: A. baumannii”.

On to “PF-233: peptide having multiple activities (DANAMARTTIAIVYILALIALTISYSL; Peptide with targeting and/or antimicrobial activity)”, for which the Activities result in the experiment on microorganisms [1] is “G B”. The “Organism, effect: S. epidermidis” value with microorganisms [2] is recorded as “S. epidermidis (C)”. The “Target(s)” value with microorganisms [3] was “S. epidermidis; also recorded: M. luteus; also recorded: P. aeruginosa; also recorded: A. baumannii”.

Turning to “PF-234: peptide having multiple activities (RTPYILRS; Peptide with targeting and/or antimicrobial activity)”, the Activities result with microorganisms [1] is recorded as “G B”. For the same substance, in the experiment with microorganisms [2], the “Organism, effect: M. luteus” value was “M. luteus (T)”. Besides, in the experiment with microorganisms [3], the “Target(s)” value is reported as “S. epidermidis; also recorded: M. luteus”.

With “PF-235: peptide having multiple activities (GIPFSKPHKRQVNYMKSDVLAYIEQNKMAHTA; Peptide with targeting and/or antimicrobial activity)”, the Activities result in the experiment with microorganisms [1] was “G B”. Further, in the experiment on microorganisms [2], the “Organism, effect: M. luteus” value is recorded as “M. luteus (T)”. Moreover, the “Target(s)” value with microorganisms [3] was “S. epidermidis; also recorded: M. luteus”.

Regarding “PF-249: peptide having multiple activities (chain 1 INSRYKISF; chain 2 INSRYKISF; Peptide with targeting and/or antimicrobial activity)”, the Activities result in the experiment on microorganisms [1] is listed as “G B”. In addition, the “Organism, effect: M. luteus” value in the experiment on microorganisms [2] is “M. luteus (R)”. In addition, the “Target(s)” value in the experiment with microorganisms [3] is on record as “S. epidermidis; also recorded: M. luteus”.

Turning to “PF-255: peptide having multiple activities (chain 1 DHKINESQHNPFRSDSNKQNVDFF; chain 2 DHKINESQHNPFRSDSNKQNVDFF; Peptide with targeting and/or antimicrobial activity)”, in the experiment with microorganisms [1], the Activities result is “G B”. In addition, in the experiment on microorganisms [2], the “Organism, effect: M. luteus” value is reported as “M. luteus (M)”. The “Target(s)” value in the experiment with microorganisms [3] is reported as “P. aeruginosa”.

Consider “PF-271: peptide having multiple activities (chain 1 AAQPQTTSP; chain 2 AAQPQTTSP; Peptide with targeting and/or antimicrobial activity)”, for which the Activities entry in the experiment on microorganisms [1] is on record as “G B”. The “Organism, effect: M. luteus” value in the experiment with microorganisms [2] is on record as “M. luteus (T)”. In the experiment on microorganisms [3], the “Target(s)” value is reported as “S. epidermidis; also recorded: M. luteus; also recorded: P. aeruginosa; also recorded: A. baumannii”.

For “PF-273: peptide having multiple activities (chain 1 LVGALLIFVALIYMVLKGNADKN; chain 2 LVGALLIFVALIYMVLKGNADKN; Peptide with targeting and/or antimicrobial activity)”, the Activities entry in the experiment with microorganisms [1] is “G B”. Further, the “Organism, effect: S. epidermidis” value in the experiment on microorganisms [2] is “S. epidermidis (C)”. In addition, the “Target(s)” value in the experiment with microorganisms [3] is reported as “S. epidermidis; also recorded: M. luteus; also recorded: P. aeruginosa; also recorded: A. baumannii”.

Consider “PF-276: peptide having multiple activities (chain 1 LDLALSTNSLNLEGFSF; chain 2 LDLALSTNSLNLEGFSF; Peptide with targeting and/or antimicrobial activity)”, for which the Activities entry with microorganisms [1] is “G B”. Also, in the experiment on microorganisms [2], the “Organism, effect: M. luteus” value is reported as “M. luteus (M)”. Further, the “Target(s)” value with microorganisms [3] is reported as “S. epidermidis”.

Regarding “PF-292: peptide having multiple activities (chain 1 SFVSTTVRLIFEESKRYKF; chain 2 SFVSTTVRLIFEESKRYKF; Peptide with targeting and/or antimicrobial activity)”, the Activities result in the experiment with microorganisms [1] is on record as “G B”. In the experiment with microorganisms [2], the “Organism, effect: B. subtilis” value is listed as “B. subtilis (C)” and the “Organism, effect: S. epidermidis” value is “S. epidermidis (C)”. Also, the “Target(s)” value in the experiment on microorganisms [3] is on record as “S. epidermidis; also recorded: B. subtilis; also recorded: B. fragilis”.

“PF-294: peptide having multiple activities (chain 1 DFLVNFLWFKGELNWGKKRYK; chain 2 DFLVNFLWFKGELNWGKKRYK; Peptide with targeting and/or antimicrobial activity)”: the Activities entry in the experiment with microorganisms [1] was “G B”. Further, the “Organism, effect: S. epidermidis” value with microorganisms [2] is reported as “S. epidermidis (C)”. For the same substance, the “Target(s)” value with microorganisms [3] was “S. epidermidis; also recorded: C. difficile”.

Take “PF-297: peptide having multiple activities (ISKGIDDIVYVINKILSIGNIFKIIKRK; Peptide with targeting and/or antimicrobial activity)”: the Activities entry with microorganisms [1] is “G B”. Besides, in the experiment with microorganisms [2], the “Organism, effect: B. subtilis” value is “B. subtilis (C)” and the “Organism, effect: S. epidermidis” value was “S. epidermidis (C)”. The “Target(s)” value in the experiment on microorganisms [3] is “S. epidermidis; also recorded: B. subtilis; also recorded: B. fragilis”.

As to “PF-301: peptide having multiple activities (GIVLIGLKLIPLLANVLN; Peptide with targeting and/or antimicrobial activity)”, the Activities result with microorganisms [1] is reported as “G B”. Moreover, in the experiment on microorganisms [2], the “Organism, effect: B. subtilis” value is “B. subtilis (C)” and the “Organism, effect: S. epidermidis” value was “S. epidermidis (C)”. The “Target(s)” value with microorganisms [3] is “C. difficile”.

As to “PF-306: peptide having multiple activities (GCILPHKKDNYNYIMSKFQDLVKITSKK; Peptide with targeting and/or antimicrobial activity)”, in the experiment with microorganisms [1], the Activities result was “G B”. Further, the “Organism, effect: B. subtilis” value with microorganisms [2] is reported as “B. subtilis (C)”. In addition, the “Target(s)” value in the experiment on microorganisms [3] is “C. difficile”.

Turning to “PF-313: peptide having multiple activities (YITSHKNARAIIKKFERDEILEEVITHYLNRK; Peptide with targeting and/or antimicrobial activity)”, the Activities entry in the experiment on microorganisms [1] is reported as “G B”. For the same substance, the “Organism, effect: S. epidermidis” value with microorganisms [2] is “S. epidermidis (C)”. For the same substance, the “Target(s)” value with microorganisms [3] was “S. epidermidis; also recorded: C. difficile”.

As for “PF-344: peptide having multiple activities (DERLPEAKAIRNFNGSVMVLGR; Peptide with targeting and/or antimicrobial activity)”, the Activities entry in the experiment on microorganisms [1] is “G B”. Moreover, in the experiment with microorganisms [2], the “Organism, effect: E. coli” value was “E. coli (A)”. Moreover, in the experiment on microorganisms [3], the “Target(s)” value was “B. subtilis; also recorded: C. jejuni”.

Consider “PF-350: peptide having multiple activities (LAVILRAIVY; Peptide with targeting and/or antimicrobial activity)”, for which the Activities entry with microorganisms [1] is given as “G B”. For the same substance, in the experiment on microorganisms [2], the “Organism, effect: E. coli” value is reported as “E. coli (C)” and the “Organism, effect: S. epidermidis” value is “S. epidermidis (C)”. Further, in the experiment on microorganisms [2] (MRSA), the “Organism, effect: MRSA” value was “MRSA (C)”. The “Target(s)” value with microorganisms [3] was “S. epidermidis; also recorded: E. coli; also recorded: E. faecalis; also recorded: C. jeikeium; also recorded: C. jejuni”.

The values are drawn from US20110039763A1, “TARGETED ANTIMICROBIAL MOIETIES” (C3 JIAN, INC., priority 2009, published 2011).
